# Source: a melting point compilation (Tetko et al.; mined from patent text by program, amines drawn as free bases though some values may be those of a salt)
row,SMILES,melting point
1,COC(=O)C1NC(c2ccc(Cl)cc2)C/C(=N\OS(C)(=O)=O)C1(Cl)Cl (configuration not stated),60 to 62 °C
2,CCCCCC(=O)ONC(=N)c1ccc(NC(=O)CCCC(=O)Nc2ccc(C(=N)NOC(=O)CCCCC)cc2)cc1,182 to 184 °C
3,COC(=O)[C@H]1NC(=O)[C@H]1NC(=O)Cc1csc(NC(=O)CCl)n1 (relative stereo),120 to 122 °C
4,CCCC1(C)CC(C)c2ccc(O)c(C)c2O1 (configuration not stated),60 °C
5,CN(C)CCCNC(=O)c1c2ccc(Cl)cc2c(-c2ccccc2)n1C,146 to 148 °C
6,CC(Nc1cc(Br)ccc1[N+](=O)[O-])C(=O)O (configuration not stated),183 to 187 °C
7,COc1ccc(Sc2ccc3[nH]cc(C4CCN(C)CC4)c3c2)cc1,160 to 162 °C
8,COc1ccc2c(c1)C(CCNC(=O)C(F)(F)F)=C(Cc1ccccc1)C2,126 to 128 °C
9,COC(=O)c1ccc2c(c1)c(Cc1ccc(C(=O)NS(=O)(=O)c3ccccc3C)cc1OC)cn2C,185 to 187 °C
10,CCC(C)(C)OC(=O)NC(C)(Cc1c[nH]c2ccccc12)C(=O)NCCc1ccccn1 (configuration not stated),151 to 152 °C
11,CC(=O)O[C@@H]1OCC[C@@H]1NC(=O)[C@H](CC(C)C)NC(=O)Nc1cccc2ccccc12,196 to 198 °C
12,O=C(c1ccccc1)c1cc(Cl)cc2c(=O)cc[nH]c12,193 to 196 °C
13,OCCCNC1=Nc2ccccc2C1(O)c1ccccc1 (configuration not stated),215 to 217 °C
14,C=CS(=O)CCNC(=O)CCS(=O)(=O)C=C (configuration not stated),93 °C
15,COc1cccc(C=NNc2ncc(COc3cccc(C(=O)Nc4ccc(C(C)C)c(C)c4)c3)c3ccccc23)c1,125 to 129 °C
16,COc1ccc2c(c1)CC(NCC(=O)O)CC2 (configuration not stated),203 °C
17,COC(=O)C[C@H](O)C[C@H](O)CCc1c(-c2ccc(F)cc2)c(-c2ccc(F)cc2)c(C(=O)Nc2cccc(C(=O)N(C)C)c2)n1C(C)C,95 to 98 °C
18,N#CCn1nc(-c2c(-c3ccccc3)nn3ccccc23)ccc1=O,218 to 219 °C
19,CC(C)(C)C(=O)Nc1ncccc1CNC1CCN(Cc2ccccc2)CC1,138 °C
20,CC(C)(Cc1cc2nc(Cl)ccc2n1S(=O)(=O)c1ccccc1)C(=O)O,208 to 211 °C
21,CCOC(=O)c1ccc(NC(=O)C(C)C)c([N+](=O)[O-])c1,74 to 76 °C
22,COC(=O)c1ccc(/C=C/c2cnc3ccccc3c2)cc1,92 to 94 °C
23,O=C1CCCN1C(=O)c1ccc(OCc2ccccc2)cc1,115 to 117 °C
24,O=C(NC(CO)CO)c1cccc(-c2ccc3c(c2)C(c2cc(Cl)ccc2Cl)CC3)c1 (configuration not stated),166 °C
25,COc1ccc(-c2cc3nc(N4CCC4)c4ccccc4c3nn2)cc1,196 to 198 °C

row,SMILES,melting point
1,CC(C)N1CC(Oc2ccc(-c3cccc(N)n3)c3ccccc23)C1,120 to 135 °C
2,COc1cccc(OC)c1Cn1cnc2ccc(O)cc2c1=O,243 to 245 °C
3,CC(C)(C)CNc1nc(Nc2cccc(NS(C)(=O)=O)c2)nc2[nH]cnc12,270 to 273 °C
4,CCCc1nccn1N=Cc1cc(C(C)(C)C)c(O)c(C(C)(C)C)c1,160 to 161 °C
5,COC(=O)Nc1ccc(Cl)c(F)c1I,137 to 139 °C
6,CCOC(=O)C1=CC(C2CC2)c2c(ccc(-c3cc4c(s3)C(O)CCC4)c2OC)C1=O (configuration not stated),183 to 185 °C
7,COc1ccccc1NC(=O)Nc1nc(Oc2ccc3ccccc3c2)nc(N(CCC(=O)O)Cc2cccc3ccccc23)n1,230 to 233 °C
8,CC(C)(C)c1cc(-c2c[nH]c(=O)[nH]2)cc(C(C)(C)C)c1O,> 260 °C
9,Cc1nc2c(N)cccn2c1C,148 to 150 °C
10,COc1ccc(-c2ccc(C#CC(=O)O)s2)cc1C(C)(C)C,124 to 126 °C
11,CS(=O)(=O)c1ccc(C(CC2CCCC2)c2nc(Br)c(C(=O)C3CC3)[nH]2)cc1 (configuration not stated),160 to 161 °C
12,CCCCCc1c(-c2ccc3cc(OCc4nnn[nH]4)ccc3c2)n(Cc2ccccc2)c2ccccc12,109 to 112 °C
13,CSC1=Nc2c(C)ccnc2N(C2CC2)c2ncccc21,173 to 177 °C
14,COc1ccc(C2CC(=O)N(C(=O)Nc3ccc(F)cc3)N2C)cc1OC1CCCC1 (configuration not stated),123 to 124 °C
15,Cc1ccc(-c2cccc(/C=C/C(=O)O)c2)cc1,186 to 187 °C
16,CCn1nc(C)c2c1C(=NC#N)NCC(c1ccc(O)cc1)=N2,300 °C
17,CCCCCSc1c[nH]nc1C1=CCCN(C)C1,100 to 101 °C
18,CC(C)c1nn(-c2ccc(C(F)(F)F)cn2)cc1CCCCOc1ccc(CCC(=O)O)cc1,144 to 145 °C
19,CC(c1cc(Cl)ccc1O)c1cc(Br)ccc1O (configuration not stated),167 °C
20,COC(=O)CCN1CCC(=C2c3sccc3CCn3ccnc32)CC1,108 °C
21,N#Cc1ccc2c(c1)C(c1ccccc1F)=NCC(OP(=O)(N1CCOCC1)N1CCOCC1)=N2,194 to 197 °C
22,COCCNC(=O)c1cccc(-c2ccc3c(c2)N(c2cccc(Cl)c2Cl)CC3)c1,99 to 100 °C
23,COc1ccccc1N1CCN(CCCCOc2ccc(-c3cn4ccsc4n3)cc2)CC1,128 to 130 °C
24,CCCc1nc2c(N)nc3cc(OCCOCCNC(=O)OC(C)(C)C)ccc3c2s1,111 to 113 °C
25,COc1ccc(C2=C(C#N)C(c3cccc4nonc34)c3c[nH]nc3N2)cc1 (configuration not stated),244 °C

row,SMILES,melting point
1,O=C(Nc1ccc(F)c(F)c1)c1cc(-c2ccc(F)cc2F)ccc1O,231 to 232 °C
2,CCn1nc(N)nc1NCCCOc1cccc(CN2CCCCC2)c1,116 to 118 °C
3,CCN(CC)C(C)CN(c1c(C)cccc1C)S(C)(=O)=O (configuration not stated),58 to 60 °C
4,CS(=O)(=O)C(=C1CN(C(c2ccccc2)c2ccccc2)C1)c1ccc(F)cc1,186 °C
5,O=c1[nH]c2ccccc2n1CCCCN1CCC(c2c[nH]c3ccccc23)CC1,196 °C
6,CC(=O)OCCn1c2c(c3ccccc3c1=O)C(=O)c1ccccc1-2,221 to 224 °C
7,CS(=O)(=O)c1ccc(-c2sc(N3CCCCC3)nc2-c2ccc(F)cc2)cc1,173 to 175 °C
8,O=C(c1ccccc1)N1CCc2cc(CCl)ccc21,108 to 110 °C
9,c1c2c(cc3c1OCO3)CN(CN1CCc3cc4c(cc3C1)OCO4)CC2,116 °C
10,Clc1cc(Cl)nc(N2CCOCC2)n1,140 °C
11,O=C(OCc1ccccc1)c1ccc(OCc2cccc(COc3ccc(C(=O)OCc4ccccc4)cc3Cl)c2)c(Cl)c1,95.8 to 97 °C
12,COCc1cn(-c2cccc(C(F)(F)F)c2)nc(C(=O)N(C)OC)c1=O,157 to 159 °C
13,O=C(CCCl)Nc1cccc2c1C(=O)c1c(NC(=O)CCCl)cccc1C2=O,248 to 249 °C
14,Cc1cc(C)cc(S(=O)(=O)n2c(CCCCC(=O)O)cc3nc(Cl)ccc32)c1,160 °C
15,O=C(Nc1cccc(NC2=CC(=O)c3ccccc3C2=O)c1)c1ccccc1,185 °C
16,Oc1cc2c3ccc(O)c(O)c3n(Cc3c(Cl)cccc3Cl)c2cc1O,263 to 265 °C
17,CCNC(=O)CC1CCN(Cc2cnc3c(C)c(NC(=O)c4ccc(-c5ccc(F)cc5)cc4)ccc3c2)CC1,243 to 245 °C
18,C=CN1CC/C(=C\C)C1=O,59 to 61 °C
19,Cc1cccc(C=NNc2nc(OCCc3ccccn3)nc(N3CCOCC3)n2)c1,143 to 147 °C
20,Clc1cccc(Cl)c1CN1CCNc2ncc(I)cc21,> 200 °C
21,CC[C@@H](c1ccccc1)N(Cc1ccc(C(=O)OC)cc1)S(=O)(=O)c1ccc(C(F)(F)F)cc1,70 to 72 °C
22,CCOC(=O)c1cc2ccccc2n(-c2c(Cl)cccc2Cl)c1=N,169 to 170 °C
23,COCCn1cc2c(C3C(=O)Nc4ccc(Br)cc43)nc(Cl)nc2n1 (configuration not stated),> 300 °C
24,NC1=CC(=O)C2CCCCC2C1 (configuration not stated),208 to 210 °C
25,COC(=O)c1cc(N)c(F)c(Br)n1,187 to 190 °C

row,SMILES,melting point
1,O=C(c1cccs1)c1cnn2c(-c3cccc(-c4nnn(Cc5ccncc5)n4)c3)ccnc12,170 °C
2,CC(C)CNCc1cc2cc(NC(=O)c3ccc(C#CC4(O)CC4)cc3)ccc2n1C,172 to 174 °C
3,CCCCc1nc2c(N)nc3ccccc3c2n1CCOCCCc1ccccc1,80.8 to 81.3 °C
4,CC(=O)NC1CCCN(c2c(F)cc3c(=O)c(C(=O)O)cn(C4CC4)c3c2F)C1 (configuration not stated),280 to 282 °C
5,Fc1ccc2[nH]cc(CC3CCN(CCOc4ccc5c(c4)CCC5)CC3)c2c1,150 to 152 °C
6,CC(=O)Nc1nc2ncn(C)c(=S)n2n1,> 300 °C
7,CCCCNC(=O)Nc1ccccc1C(=O)OC,84 to 85 °C
8,Brc1cccc(Br)c1OC1C=CC(Oc2c(Br)cccc2Br)C1 (configuration not stated),205 to 206 °C
9,CC(C)(C)c1ccc(OCC(O)CN(CCO)CCO)cc1 (configuration not stated),45 to 47 °C
10,CCOC(=O)c1ccccc1-c1ccc(Nc2cc(CC)nc3ccnn23)cc1,223 to 225 °C
11,Cc1cccc(C(N)=O)c1Nc1nc(Nc2ccc3c(c2)C(C)(C)CCC(=O)N3)ncc1Cl,220 to 222 °C
12,O=C(O)C(Cl)(Cl)Cc1ccccc1,173 to 176 °C
13,O=C(c1ccccc1)c1cc(Cl)ccc1-n1c(CN2C(=O)c3ccccc3C2=O)nnc1CN1C(=O)c2ccccc2C1=O,250 to 251 °C
14,COc1cc2oc(=O)c(CCOS(C)(=O)=O)c(C)c2cc1OC,188 to 191 °C
15,O=S(=O)(N[C@H]1CC[C@H](CCN2CCN(c3nccc4c3OCC4)CC2)CC1)c1ccc(F)cc1,148 °C
16,c1ccc2c(c1)-c1cccc3c(NCCCCNc4nccc5ccccc45)nnc-2c13,95 to 105 °C
17,CCOC(=O)C(N)c1ccc(C(C)=O)cc1 (configuration not stated),77 to 78 °C
18,NC(=O)NCc1ccc2c(c1)CN(C1CCC(=O)NC1=O)C2=O (configuration not stated),224 to 226 °C
19,COC(=O)C(=O)c1ccc(OCCOc2ccc3cccnc3c2)cc1,92 to 94 °C
20,O=C(NCCO)c1[nH]c2ccc(Cl)cc2c1S(=O)(=O)c1ccccc1,198 to 200 °C
21,O=C(O)C(c1ccccc1)N1C(=O)c2ccccc2C1=O (configuration not stated),175 to 177 °C
22,O=C(NCC(=O)N1c2ccccc2N(Cc2ccccc2)C(=O)[C@H]2CCC[C@H]21)c1ccco1 (relative stereo),169 to 170 °C
